Measured values taken from patent publication US20240058264A1, “PHARMACEUTICAL FORMULATIONS OF NINTEDANIB FOR INTRAOCULAR USE” (Boehringer Ingelheim International GmbH, priority 2022, published 2024).
≈ marks a conversion by molar mass, not a printed value.

Assay: Water solubility
Format: physicochemical

Row | Structure (SMILES) | solubility in water | solubility [µg/mL]
1 | COC(=O)c1ccc2c(c1)NC(=O)/C2=C(\Nc1ccc(N(C)C(=O)CN2CCN(C)CC2)cc1)c1ccccc1 [free base of nintedanib, 3-Z-[1-(4-(N-((4-methyl-piperazin-1-yl)-methylcarbonyl)-N-methyl-amino)-anilino)-1-phenyl-methylene]-6-methoxycarbonyl-2-indolinone] | very poor | 
2 | COC(=O)c1ccc2c(c1)NC(=O)/C2=C(\Nc1ccc(N(C)C(=O)CN2CCN(C)CC2)cc1)c1ccccc1 [nintedanib esylate] |  | 2800 (≈ 5.19 mM)
